# Columns and labels:
# human TGR5 (h-TGR5) = target: T1, human TGR5 (h-TGR5) (Homo sapiens, UniProt Q8TDU6); assay: TGR5/CRE-Luciferiase Assay (HEK 293 hTGR5/CRE-Luc cells); format: cell-based; settings: h-TGR5 CRE-Luc EC50, Table 1; read-out: CRE-Luc (EC50)
# T1 construct: expressed in transfected cells
# T1 sequence (Q8TDU6 1-330): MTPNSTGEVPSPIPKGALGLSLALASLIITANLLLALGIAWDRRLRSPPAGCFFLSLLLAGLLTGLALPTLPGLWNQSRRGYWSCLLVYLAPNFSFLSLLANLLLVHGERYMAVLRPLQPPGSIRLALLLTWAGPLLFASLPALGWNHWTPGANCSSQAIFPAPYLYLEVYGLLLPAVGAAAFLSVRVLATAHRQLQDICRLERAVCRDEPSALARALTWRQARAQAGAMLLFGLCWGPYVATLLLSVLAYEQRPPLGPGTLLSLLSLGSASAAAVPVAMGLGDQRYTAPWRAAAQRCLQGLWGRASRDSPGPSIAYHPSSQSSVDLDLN
# Outline: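 HEK293 cells stably carrying hTGR5 and a CRE-luciferase reporter were exposed to serially diluted compounds (diluted in DMEM with 5% DMSO) for 6 h. Cells were then lysed in luciferase buffer, luminescence was read, and EC50 values were derived from dose-response curves.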
# h-TGR5 = target: T2, h-TGR5 (Homo sapiens, UniProt Q8TDU6); assay: TGR5 cAMP Assay using Cisbio cAMP Dynamic2 htrf kit (hTGR5CRE-luc HEK 293 cells); format: cell-based; settings: h-TGR5 cAMP EC50, Table 1; read-out: cAMP (EC50)
# T2 construct: expressed in transfected cells
# T2 sequence (Q8TDU6 1-330): T1 sequence (Q8TDU6 1-330)
# Outline: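 […], 4000 hTGR5CRE-luc HEK 293 cells per well, with 0.5 mM IBMX and d2-cAMP, were incubated 30 min at room temperature with compounds in 8-point half-log series, in quadruplicate.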
SMILES,EC50 (human TGR5 (h-TGR5)),EC50 (h-TGR5)
CC(C)(c1ccc(S(N)(=O)=O)c(Cl)c1)c1cnc(SCc2ccc(F)cc2Cl)n1-c1ccc(F)cc1 [2-chloro-4-{1-[2-{[(2-chloro-4-fluorophenyl)methyl]thio}-1-(4-fluorophenyl)-1H-imidazol-5-yl]-1-methylethyl}benzenesulfonamide],< 100 nM,100 to 1000 nM
COc1cc(C(C)(C)c2cnc(SCc3c(F)cc(C(=O)O)cc3Cl)n2-c2ccc(F)cc2)ccc1Cl [3-chloro-4-({[5-{1-[4-chloro-3-(methyloxy)phenyl]-1-methylethyl}-1-(4-fluorophenyl)-1H-imidazol-2-yl]thio}methyl)-5-fluorobenzoic acid],< 100 nM,< 100 nM
"COc1cc(-n2c(C(C)(C)c3ccc(Cl)c(Cl)c3)cnc2SCc2ccc(CCCNC(=N)N)c(C(=O)O)c2)ccc1F [2-(3-{[amino(imino)methyl]amino}propyl)-5-[({5-[1-(3,4-dichlorophenyl)-1-methylethyl]-1-[4-fluoro-3-(methyloxy)phenyl]-1H-imidazol-2-yl}thio)methyl]benzoic acid]",100 to 1000 nM,100 to 1000 nM
COc1cc(C(C)(C)c2cnc(SCc3c(F)ccc(OCCCNC(=N)N)c3Cl)n2-c2ccc(F)cc2)ccc1F [1-(3-{[2-chloro-4-fluoro-3-({[5-{1-[4-fluoro-3-(methyloxy)phenyl]-1-methylethyl}-1-(4-fluorophenyl)-1H-imidazol-2-yl]thio}methyl)phenyl]oxy}propyl)guanidine],< 100 nM,< 100 nM
CCCNC(=O)NS(=O)(=O)c1ccc(CSc2ncc(C(C)(C)c3ccc(Cl)c(OC)c3)n2-c2ccc(F)cc2)c(Cl)c1 [3-chloro-4-({[5-{1-[4-chloro-3-(methyloxy)phenyl]-1-methylethyl}-1-(4-fluorophenyl)-1H-imidazol-2-yl]thio}methyl)-N-[(propylamino)carbonyl]benzenesulfonamide],< 100 nM,< 100 nM
"COc1cc(-n2c(C(C)(C)c3ccc(F)c(F)c3)cnc2SCc2ccc(S(=O)(=O)NC(=O)NN3CCCC3)cc2Cl)ccc1F [3-chloro-4-[({5-[1-(3,4-difluorophenyl)-1-methylethyl]-1-[4-fluoro-3-(methyloxy)phenyl]-1H-imidazol-2-yl}thio)methyl]-N-[(pyrrolidin-1-ylamino)carbonyl]benzenesulfonamide]",100 to 1000 nM,100 to 1000 nM
"COc1cc(C(C)(C)c2cnc(SCc3c(F)cc(-c4noc(=O)[nH]4)cc3F)n2-c2ccc(F)cc2)ccc1Cl [3-[4-({[5-{1-[4-chloro-3-(methyloxy)phenyl]-1-methylethyl}-1-(4-fluorophenyl)-1H-imidazol-2-yl]thio}methyl)-3,5-difluorophenyl]-1,2,4-oxadiazol-5(4H)-one]",< 100 nM,< 100 nM
CC(C)(c1ccc(F)c(F)c1)c1cnc(SCc2c(F)cc(C(=O)O)cc2F)n1-c1ccc(F)cc1,100 to 1000 nM,< 100 nM
COc1cc(C(C)(C)c2cnc(SCc3cc(OCCNC(=N)N)c(Cl)cc3F)n2-c2ccc(F)cc2)ccc1Cl [1-(2-{[2-chloro-5-({[5-{1-[4-chloro-3-(methyloxy)phenyl]-1-methylethyl}-1-(4-fluorophenyl)-1H-imidazol-2-yl]thio}methyl)-4-fluorophenyl]oxy}ethyl)guanidine],100 to 1000 nM,< 100 nM
COc1cc(C(C)(C)c2cnc(SCc3ccc(S(=O)(=O)NC(=O)Nn4cccc4)cc3Cl)n2-c2ccc(F)cc2)ccc1Cl [3-chloro-4-({[5-{1-[4-chloro-3-(methyloxy)phenyl]-1-methylethyl}-1-(4-fluorophenyl)-1H-imidazol-2-yl]thio}methyl)-N-[(1H-pyrrol-1-ylamino)carbonyl]benzenesulfonamide],100 to 1000 nM,100 to 1000 nM
"COc1cc(-n2c(C(C)(C)c3cccc(S(C)(=O)=O)c3)cnc2SCc2c(F)cc(C(=O)O)cc2F)ccc1F [3,5-difluoro-4-{[(1-[4-fluoro-3-(methyloxy)phenyl]-5-{1-methyl-1-[3-(methylsulfonyl)phenyl]ethyl}-1H-imidazol-2-yl)thio]methyl}benzoic acid]",100 to 1000 nM,100 to 1000 nM

# Other lines, results leading:
EC50 (human TGR5 (h-TGR5)),EC50 (h-TGR5),SMILES
1000 to 10000 nM,100 to 1000 nM,"CC(C)(c1ccc(Cl)c(Cl)c1)c1cnc(COC2CCN(S(C)(=O)=O)CC2)n1-c1ccc(F)cc1 [4-[({5-[1-(3,4-dichlorophenyl)-1-methylethyl]-1-(4-fluorophenyl)-1H-imidazol-2-yl}methyl)oxy]-1-(methylsulfonyl)piperidine]"
100 to 1000 nM,100 to 1000 nM,"CC(C)(c1ccc(Cl)c(Cl)c1)c1cnc(SCc2ccc(F)cc2Cl)n1-c1ccc(F)c(CO)c1 [[5-(2-{[(2-chloro-4-fluorophenyl)methyl]thio}-5-[1-(3,4-dichlorophenyl)-1-methylethyl]-1H-imidazol-1-yl)-2-fluorophenyl]methanol]"
< 100 nM,< 100 nM,CCOC(=O)NS(=O)(=O)c1ccc(CSc2ncc(C(C)(C)c3ccc(S(N)(=O)=O)c(Cl)c3)n2-c2ccc(F)c(OC)c2)c(Cl)c1 [ethyl [(4-{[(5-{1-[4-(aminosulfonyl)-3-chlorophenyl]-1-methylethyl}-1-[4-fluoro-3-(methyloxy)phenyl]-1H-imidazol-2-yl)thio]methyl}-3-chlorophenyl)sulfonyl]carbamate]
< 100 nM,100 to 1000 nM,"CC(C)(c1ccc(O)c(O)c1)c1cnc(SCc2c(F)cccc2Cl)n1-c1ccc(F)cc1 [4-{1-[2-{[(2-chloro-6-fluorophenyl)methyl]thio}-1-(4-fluorophenyl)-1H-imidazol-5-yl]-1-methylethyl}benzene-1,2-diol]"
100 to 1000 nM,100 to 1000 nM,"CC(C)(c1ccc(Cl)c(Cl)c1)c1cnc(SCc2ccc(Cl)c(-c3nnn[nH]3)c2)n1-c1cccc(Cl)c1 [5-{2-chloro-5-[({1-(3-chlorophenyl)-5-[1-(3,4-dichlorophenyl)-1-methylethyl]-1H-imidazol-2-yl}thio)methyl]phenyl}-1H-tetrazole]"
< 100 nM,100 to 1000 nM,COc1cc(C(C)(C)c2cnc(SCc3ccc(Cl)c(-c4nnn[nH]4)c3)n2-c2ccc(F)cc2)ccc1Cl [5-[2-chloro-5-({[5-{l-[4-chloro-3-(methyloxy)phenyl]-1-methylethyl}-1-(4-fluorophenyl)-1H-imidazol-2-yl]thio}methyl)phenyl]-1H-tetrazole]
100 to 1000 nM,100 to 1000 nM,"CC(C)(c1ccc(S(N)(=O)=O)c(Cl)c1)c1cnc(SCc2c(F)cc(C(=O)O)cc2F)n1-c1ccc(F)cn1 [4-({[5-{1-[4-(aminosulfonyl)-3-chlorophenyl]-1-methylethyl}-1-(5-fluoropyridin-2-yl)-1H-imidazol-2-yl]thio}methyl)-3,5-difluorobenzoic acid]"
< 100 nM,< 100 nM,CC(C)(c1ccc(S(N)(=O)=O)c(Cl)c1)c1cnc(SCc2c(F)cc(C(=O)O)cc2Cl)n1-c1ccc(F)cc1 [4-({[5-{1-[4-(aminosulfonyl)-3-chlorophenyl]-1-methylethyl}-1-(4-fluorophenyl)-1H-imidazol-2-yl]thio}methyl)-3-chloro-5-fluorobenzoic acid]
< 100 nM,< 100 nM,COc1cc(-n2c(C(C)(C)c3ccc(S(N)(=O)=O)c(Cl)c3)cnc2SCc2c(F)cc(C(=O)NC(CCCNC(=N)N)C(=O)O)cc2Cl)ccc1F [N-2-[(4-{[(5-{1-[4-(aminosulfonyl)-3-chlorophenyl]-1-methylethyl}-1-[4-fluoro-3-(methyloxy)phenyl]-1H-imidazol-2-yl)thio]methyl}-3-chloro-5-fluorophenyl)carbonyl]-D-arginine]
100 to 1000 nM,100 to 1000 nM,"CC(C)(c1ccc(Cl)c(Cl)c1)c1cnc(SCc2ccc(F)c(C(=O)NCC(=O)O)c2)n1-c1ccc(F)cc1 [N-({5-[({5-[1-(3,4-dichlorophenyl)-1-methylethyl]-1-(4-fluorophenyl)-1H-imidazol-2-yl}thio)methyl]-2-fluorophenyl}carbonyl)glycine]"
< 100 nM,< 100 nM,"COc1cc(-n2c(C(C)(C)c3ccc4onc(N)c4c3)cnc2SCc2c(F)cc(C(=O)NC(CCCNC(=N)N)C(=O)O)cc2Cl)ccc1F [N-2-({4-[({5-[1-(3-amino-1,2-benzisoxazol-5-yl)-1-methylethyl]-1-[4-fluoro-3-(methyloxy)phenyl]-1H-imidazol-2-yl}thio)methyl]-3-chloro-5-fluorophenyl}carbonyl]-D-arginine]"
< 100 nM,< 100 nM,"CC(C)(c1ccc(Cl)c(Cl)c1)c1cnc(SCc2c(F)cc(C(=O)NO)cc2F)n1-c1ccc(F)cc1 [4-[({5-[1-(3,4-dichlorophenyl)-1-methylethyl]-1-(4-fluorophenyl)-1H-imidazol-2-yl}thio)methyl]-3,5-difluoro-N-hydroxybenzamide]"
< 100 nM,< 100 nM,COc1cc(C(C)(C)c2cnc(SCc3c(F)cc(C(=O)NCCCC(N)C(=O)O)cc3Cl)n2-c2ccc(F)cc2)ccc1Cl [N-5-{[3-chloro-4-({[5-{1-[4-chloro-3-(methyloxy)phenyl]-1-methylethyl}-1-(4-fluorophenyl)-1H-imidazol-2-yl]thio}methyl)-5-fluorophenyl]carbonyl}-L-ornithine]

# Source: patent US8785488B2 (Exelixis Patent Company LLC, priority 2009, dated 2014)
